Key:
Assay in all cases: combination Emax (second highest fraction inhibited in the dose matrix, 72 h); higher = more inhibition; extreme values may be limits of the assay
NCI-H2591 (Mesothelioma) = system: NCI-H2591 (Mesothelioma)
In short: (§1)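 After 24 hours at 37°C and 5% CO2 in 1536-well plates, cells in DMEM/F12 or RPMI plus 10% FBS received two-drug dose matrices for 72 hours. Viability came from CellTiter-Glo 2.0 luminescence and was scaled as inhibition, anchored at 0 by vehicle wells and at 1 by blank wells. Combination Emax is taken as the second-highest inhibition in the matrix, and Bliss excess as the observed combination effect less EA + EB − EA·EB, with EA and EB the single-agent effects.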

[1] = system: COLO-824 (Breast Carcinoma)
In short: as §1

[2] = system: NCI-H64 (Small Cell Lung Carcinoma)
In short: as §1

[3] = system: KARPAS-422 (B-Cell Non-Hodgkin's Lymphoma)
In short: as §1

[4] = system: NCI-H2066 (Squamous Cell Lung Carcinoma)
In short: as §1

GI-ME-N (Neuroblastoma) = system: GI-ME-N (Neuroblastoma)
In short: as §1

[5] = system: CCK-81 (Colorectal Carcinoma)
In short: as §1

[6] = system: NCI-H1693 (Lung Adenocarcinoma)
In short: as §1

[7] = system: SK-MG-1 (Low Grade Glioma)
In short: as §1

LN-405 (Glioblastoma) = system: LN-405 (Glioblastoma)
In short: as §1

[8] = system: NCI-H1650 (Lung Adenocarcinoma)
In short: as §1

[9] = system: ECC10 (Gastric Carcinoma)
In short: as §1

[10] = system: NCI-H1666 (Lung Adenocarcinoma)
In short: as §1

PA-1 (Ovarian Carcinoma) = system: PA-1 (Ovarian Carcinoma)
In short: as §1

[11] = system: MDST8 (Colorectal Carcinoma)
In short: as §1

[12] = system: NCI-H1581 (Non-Small Cell Lung Carcinoma)
In short: as §1

[13] = system: COLO-320-HSR (Colorectal Carcinoma)
In short: as §1

[14] = system: NCI-H2141 (Small Cell Lung Carcinoma)
In short: as §1

U-2-OS (Osteosarcoma) = system: U-2-OS (Osteosarcoma)
In short: as §1

[15] = system: SK-MES-1 (Squamous Cell Lung Carcinoma)
In short: as §1

SMILES	combination Emax (NCI-H2591 (Mesothelioma))	combination Emax [1]	combination Emax [2]	combination Emax [3]	combination Emax [4]	combination Emax (GI-ME-N (Neuroblastoma))	combination Emax [5]	combination Emax [6]	combination Emax [7]	combination Emax (LN-405 (Glioblastoma))	combination Emax [8]	combination Emax [9]	combination Emax [10]	combination Emax (PA-1 (Ovarian Carcinoma))	combination Emax [11]	combination Emax [12]	combination Emax [13]	combination Emax [14]	combination Emax (U-2-OS (Osteosarcoma))	combination Emax [15]
CN(C)CCCOc1ccc(-c2ccc3ncc4c(c3c2)n(C2CCOCC2)c(=O)n4C)cn1 [AZD0156] + O=C(c1cc(Cc2n[nH]c(=O)c3ccccc23)ccc1F)N1CCN(C(=O)C2CC2)CC1 [Olaparib] (first compound max 3 µM, partner max 3 µM)	0.135	0.383	0.145	0.56	0.215	0.193	0.394	0.248	0.319	0.182	0.226	0.299	0.269	0.479	0.361	0.412	0.301	0.192	0.201	0.407
C=CCn1c(=O)c2cnc(Nc3ccc(N4CCN(C)CC4)cc3)nc2n1-c1cccc(C(C)(C)O)n1 [AZD1775] + C1CN(CCC1(C(=O)N[C@@H](CCO)C2=CC=C(C=C2)Cl)N)C3=NC=NC4=C3C=CN4 [Capivasertib] (first compound max 3 µM, partner max 3 µM)	0.178	0.79	0.92	0.856	0.685	0.451	0.85	0.449	0.591	0.49	0.61	0.746	0.55	0.866	0.704	0.857	0.854	0.641	0.665	0.781
C=CCn1c(=O)c2cnc(Nc3ccc(N4CCN(C)CC4)cc3)nc2n1-c1cccc(C(C)(C)O)n1 [AZD1775] + C[C@@H]1COCCN1C2=NC(=NC(=C2)C3(CC3)[S@](=N)(=O)C)C4=C5C=CNC5=NC=C4 [AZD6738] (first compound max 1 µM, partner max 10 µM)	0.389	0.851	0.936	0.786	0.605	0.548	0.944	0.331	0.702	0.464	0.53	0.843	0.49	0.883	0.816	0.771	0.821	0.675	0.852	0.695
C=CCn1c(=O)c2cnc(Nc3ccc(N4CCN(C)CC4)cc3)nc2n1-c1cccc(C(C)(C)O)n1 [AZD1775] + O=C(c1cc(Cc2n[nH]c(=O)c3ccccc23)ccc1F)N1CCN(C(=O)C2CC2)CC1 [Olaparib] (first compound max 1 µM, partner max 10 µM)	0.253	0.685	0.869	0.678	0.377	0.337	0.894	0.288	0.572	0.176	0.403	0.796	0.335	0.756	0.408	0.568	0.606	0.528	0.637	0.5
CCN(CCO)CCCOc1ccc2c(Nc3cc(CC(=O)Nc4cccc(F)c4)[nH]n3)ncnc2c1 [AZD2811] + C=CCn1c(=O)c2cnc(Nc3ccc(N4CCN(C)CC4)cc3)nc2n1-c1cccc(C(C)(C)O)n1 [AZD1775] (first compound max 1 µM, partner max 1 µM)	0.194	0.813	0.813	0.569	0.203	0.29	0.849	0.225	0.455	0.199	0.346	0.898	0.327	0.767	0.465	0.688	0.631	0.502	0.628	0.537
CCN(CCO)CCCOc1ccc2c(Nc3cc(CC(=O)Nc4cccc(F)c4)[nH]n3)ncnc2c1 [AZD2811] + C[C@@H]1COCCN1C2=NC(=NC(=C2)C3(CC3)[S@](=N)(=O)C)C4=C5C=CNC5=NC=C4 [AZD6738] (first compound max 1 µM, 7x7, partner max 10 µM)	0.315	0.802	0.781	0.565	0.339	0.552	0.891	0.232	0.515	0.46	0.414	0.876	0.28	0.795	0.724	0.474	0.599	0.502	0.642	0.668
CCN(CCO)CCCOc1ccc2c(Nc3cc(CC(=O)Nc4cccc(F)c4)[nH]n3)ncnc2c1 [AZD2811] + O=C(c1cc(Cc2n[nH]c(=O)c3ccccc23)ccc1F)N1CCN(C(=O)C2CC2)CC1 [Olaparib] (first compound max 1 µM, 7x7, partner max 10 µM)	0.182	0.797	0.434	0.375	0.214	0.196	0.254	0.236	0.405	0.192	0.249	0.835	0.284	0.545	0.338	0.344	0.0695	0.307	0.219	0.271
CN(CCO)CC[C@H](CSc1ccccc1)Nc1ccc(S(=O)(=O)NC(=O)c2ccc(N3CCC([C@@H](O)c4ccccc4-c4ccc(Cl)cc4)CC3)cc2)cc1S(=O)(=O)C(F)(F)F [AZD4320] + C=CCn1c(=O)c2cnc(Nc3ccc(N4CCN(C)CC4)cc3)nc2n1-c1cccc(C(C)(C)O)n1 [AZD1775] (first compound max 1 µM, partner max 1 µM)	0.159	1	1	0.978	0.646	0.334	0.775	0.355	0.91	0.379	0.403	1	0.302	0.967	0.992	0.475	0.632	1	0.782	0.797
CN(CCO)CC[C@H](CSc1ccccc1)Nc1ccc(S(=O)(=O)NC(=O)c2ccc(N3CCC([C@@H](O)c4ccccc4-c4ccc(Cl)cc4)CC3)cc2)cc1S(=O)(=O)C(F)(F)F [AZD4320] + CCN(CCO)CCCOc1ccc2c(Nc3cc(CC(=O)Nc4cccc(F)c4)[nH]n3)ncnc2c1 [AZD2811] (first compound max 1 µM, 7x7, partner max 1 µM)	0.561	1	1	0.903	0.543	0.19	0.178	0.221	0.731	0.363	0.254	1	0.154	0.773	0.918	0.445	0.0615	0.896	0.389	0.342
CN(CCO)CC[C@H](CSc1ccccc1)Nc1ccc(S(=O)(=O)NC(=O)c2ccc(N3CCC([C@@H](O)c4ccccc4-c4ccc(Cl)cc4)CC3)cc2)cc1S(=O)(=O)C(F)(F)F [AZD4320] + C[C@@H]1COCCN1C2=NC(=NC(=C2)C3(CC3)[S@](=N)(=O)C)C4=C5C=CNC5=NC=C4 [AZD6738] (first compound max 1 µM, 7x7, partner max 10 µM)	0.612	1	0.99	0.979	0.603	0.499	0.828	0.546	0.644	0.63	0.532	1	0.418	0.886	0.944	0.364	0.543	0.943	0.724	0.904
CN(CCO)CC[C@H](CSc1ccccc1)Nc1ccc(S(=O)(=O)NC(=O)c2ccc(N3CCC([C@@H](O)c4ccccc4-c4ccc(Cl)cc4)CC3)cc2)cc1S(=O)(=O)C(F)(F)F [AZD4320] + Cn1cnc2c(F)c(Nc3ccc(Br)cc3Cl)c(C(=O)NOCCO)cc21 [Selumetinib] (first compound max 1 µM, 7x7, partner max 3 µM)	0.242	1	0.988	0.875	0.71	0.345	0.491	0.459	0.441	0.646	0.318	1	0.697	0.8	0.955	0.4	0.198	0.893	0.516	0.472
COc1nnc2ccc(N3CCC(c4ccc(OCCN5CCN(C)C(=O)[C@H]5C)cc4)CC3)nn12 [AZD5153] + C=CCn1c(=O)c2cnc(Nc3ccc(N4CCN(C)CC4)cc3)nc2n1-c1cccc(C(C)(C)O)n1 [AZD1775] (first compound max 1 µM, partner max 1 µM)	0.448	0.863	0.884	0.888	0.475	0.393	0.869	0.565	0.618	0.535	0.477	0.901	0.413	0.973	0.461	0.866	0.661	0.659	0.635	0.743
